Laboratory results published in US11707448B2, “Combination therapies for the treatment of cancer” (Eisai R&D Management Co., Ltd., priority 2014, dated 2023).

What was measured:
4T1 tumors = assay: Challenge of cured (tumor-free) mice with 4T1 cells; assay type: in vivo; conditions: mice cured by ER-886046 + radiation; vs control (naive) group
Source text: FIG. 4A to FIG. 4C. Long lasting anti-tumor effect with a memory immune response by ER-886046/radiation treatment. Panel shown in FIG. 4A) Tumor growth in the cured mice by ER-886046 and radiation combination treatment or in the naïve Ba1B/c mice that received injection of CT26 cells. Panel shown in FIG. 4B) Tumor growth of secondarily challenged CT-26 tumors in the cured mice or in naïve mice. Panel shown in FIG. 4C) Growth of 4T1 tumors in cured mice or in naïve mice. N=9-10. Note the complete rejection of challenged CT-26 tumor and reduced growth of challenged 4T1 tumors in the combination cured mice. ***, p<0.001. 2 tailed student t-test. Note that no treatment was applied to any animals.
In case of tumor rechallenge of tumor-free mice after treatments, CT26 cells and 4T1 cells were individually sc injected into the different flanks of the same mouse, and the growth of each tumor was measured and graphed as described above. Naïve mice that received neither cancer cell injection nor drug treatment were included as controls. […] At the end of study on day 27, the mice in all treatment groups were intranasally administered luciferin and the lungs were resected and analysed for luciferase expression using IVIS instrument. Quantification of the luciferase activity in the lungs was achieved by software Living Image.

CT26 tumors [1] = assay: Bilateral CT26 tumor model (abscopic effect); assay type: in vivo, mice
Method: FIG. 5A to FIG. 5B. Anti-tumor effect of ER-886046/radiation in a bilateral tumor model. Two similar-sized CT-26 tumors were grown in a host by injecting CT26 cells subcutaneously on both right and left flanks of Ba1B/c mice. Radiation was applied to the right flank tumor on both day 9 and day 13 as indicated by arrows in panel A. ER-886046 was administered daily po to the animals at a dose of 150 mg/kg as indicated by the bars. ER-886046 was dosed to animals from day 9 to day 27. Panel shown in FIG. 5A) Average size of the right flank tumor that received radiation and ER-886046. Panel shown in FIG. 5B) Average size of the left flank tumor that received no radiation (radiation administered only to the right flank tumor).
Abscopic effect of the combination treatment of ER-886046 and radiation in an animal model. Induction of anti-tumor immune response can be systemic and thus highly valuable for treating metastatic cancer, which has multiple lesions in one host. To mimic the large metastatic lesions in mice, we simultaneously grew CT26 tumors on both sides of an individual mouse by subcutaneously injecting cancer cells. The tumors on the right side of the mice were treated with both radiation and ER-886046. The tumors on the left side of the mice received ER-886046 only.

B16F10 melanoma tumors = assay: B16F10 melanoma model, ER-886046 with anti-CTLA4; assay type: in vivo, mice
Method: FIG. 8A to FIG. 8B. Synergistic anti-tumor activity of ER-886046 with anti-CTLA4 in B16F10 tumors. Panel shown in FIG. 8A) Anti-tumor growth activities of anti-CTLA4 and ER-886046 in B16F10 melanoma tumors growing in C57BL/6 mice. Panel shown in FIG. 8B) Animal body weight changes of the treatment groups. Anti-CTLA4 dosing: 200 μg for the first intravenous (iv) injection on day 3 after transplantation and 100 μg for the other three iv injections on days 6, 9 and 12 as indicated by the arrows. ER-886046 dosing: 150 mg/kg, po daily administration from day 3 to day 15 as indicated by the bars. *, p<0.05; **, p<0.01; ns, not significant; student t test.
Animal studies; In vitro cultured cancer cells were harvested and suspended in 100 μl of phosphate buffered saline at a cell concentration of 1.0×10^5 cells/ml and subcutaneously (sc) injected into the mice using a 26 g syringe on day 0. At the days post cell implantation as indicated in the figures, the mice were randomized based on the tumor size followed by treatments with radiation at 3 or 9 Gy dose per treatment, anti-PDL1 at 200 μg/mouse per intraperitoneal injection (ip), or anti-CTLA4 at 200 or 100 μg/mouse per ip injection with or without orally administration of ER-886046 at a dose of 150 mg/kg. The animals that were assigned to the treatment groups in individual study had close mean tumor weights in all groups. The tumor sizes were measured twice a week by a digital caliper (Mitutoyo Corp), and the volume was calculated using the formula (1×w^2)/2=mm^3, where 1 and w refer to the larger and smaller perpendicular dimensions collected at each measurement. Graphs of group tumor sizes (mean±SEM) and body weights (mean±SEM) versus time were plotted using software GraphPad Prism 6 (Lake Forest, Calif.). Student t-test and Gehan-Breslow-Wilcoxon test were used for statistical analysis.

CT26 tumors [2] = assay: CT26 tumor model, ER-886046 with anti-PDL1 or anti-PD1; assay type: in vivo, mice
Method: FIG. 9A to FIG. 9B. […] Anti-PDL1 dosing: 200 μg per iv injection on days 9, 12, 15 and 18 post cell implantation as indicated by the arrows; […] Anti-PD1 dosing: 200 μg per iv injection on days 9, 12, 15, 18 and 21 post cell implantation as indicated by the arrows; […] Animal studies; In vitro cultured cancer cells were harvested and suspended in 100 μl of phosphate buffered saline at a cell concentration of 1.0×10^5 cells/ml and subcutaneously (sc) injected into the mice using a 26 g syringe on day 0. […] The animals that were assigned to the treatment groups in individual study had close mean tumor weights in all groups. […] Graphs of group tumor sizes (mean±SEM) and body weights (mean±SEM) versus time were plotted using software GraphPad Prism 6 (Lake Forest, Calif.). Student t-test and Gehan-Breslow-Wilcoxon test were used for statistical analysis.

C[C@H](NC(=O)c1c(C(F)F)nn(C)c1Oc1cccc(C(F)(F)F)c1)c1ccc(C(=O)O)cc1 [ER-886046]
growth of 4T1 tumors in cured mice (4T1 tumors): no rejection of the tumor, but the growth rate was significantly reduced | growth of right side tumor (radiated) (CT26 tumors [1]; ER-886046 150 mg/kg po daily day 9-27 + radiation of right flank tumor day 9 and 13, vs radiation alone or ER-886046 alone): better tumor growth suppression | growth of left side tumor (not radiated) (CT26 tumors [1]; ER-886046 150 mg/kg po daily day 9-27, radiation only to right flank tumor, vs no ER-886046 treatment): significantly reduced tumor growth rate | anti-tumor growth activity, combination (B16F10 melanoma tumors; ER-886046 150 mg/kg po daily day 3-15 + anti-CTLA4 200/100 μg days 3, 6, 9, 12): highly significant anti-tumor activity | animal body weight (B16F10 melanoma tumors; ER-886046 + anti-CTLA4 combination): No animal body weight loss | anti-tumor growth activity, single agent (B16F10 melanoma tumors; alone, ER-886046 150 mg/kg po daily day 3-15, anti-CTLA4 200 μg day 3, 100 μg days 6, 9, 12): minimal activity | anti-tumor activity compared to anti-PDL1 alone (CT26 tumors [2]; ER-886046 150 mg/kg po daily day 9-19 + anti-PDL1 200 μg): better anti-tumor activity | anti-tumor activity compared to anti-PD1 alone (CT26 tumors [2]; ER-886046 150 mg/kg po daily day 9-23 + anti-PD1 200 μg): better anti-tumor activity
